# Assay results published in patent US9272035B2, “Methods and compositions using PDE4 inhibitors for the treatment and management of autoimmune and inflammatory diseases” (Celgene Corporation, priority 2011, dated 2016).
# “And” between values parts separate entries of the source, which are not always exact repeats. Equal values may be shown once. “Also recorded” adds a separate entry of the source. Read-outs that look alike come from different tables or passages of the source.
# Experiments:
# [1] = system: mAB/LPS-induced experimental arthritis; experiment: mAB/LPS-induced experimental murine arthritogenic model, paw thickness (five treatment days); type: in vivo, BALB/c male mice
# Description: The mice were administered with 1, 5 and 25 mg/kg once daily oral (PO) gavage throughout five successive treatment days.
# [2] = system: Normal human osteoblast cells (nHOST); experiment: Osteoblast production of RANKL and OPG (ELISA); type: cell-based; conditions: 7 days with 10 nM dexamethasone and 10 nM Vitamin D
# Description: Normal human osteoblast cells (nHOST, source: Lonza) were plated in 6 well plates and incubated overnight for cell attachment. Cells were treated for 7 days with Compound A and with 10 nM dexamethasone and 10 nM Vitamin D. Compound and media was refreshed every 3-4 days. On Day 7 supernatent was collected for RANKL and OPG by ELISA.
# [3] = Pharmacokinetic data for study drugs; parameters: species or system RA patients; conditions: human, in vivo; for concentration at 7 day: read-out: Cmin
# [4] = system: mAB/LPS-induced experimental arthritis; experiment: Histopathological evaluation of the tibiotarsal joint of arthritic mice; type: in vivo; parameters: key to Fibrin deposition / Inflammatory infiltration in the synovial membrane / Pannus formation (reflected by proliferation of granulation tissue) / Cartilage disruption / Hyaline cartilage destruction (reflected by resorption/erosion in the cartilage) / Subchondral bone destruction (reflected by resorption/erosion by osteoclasts and loss of bone) / Overall assessment: “determined as arthritis” / Synovial hyperplasia / Synovial villus formation: 0=unremarkable; 1=minimal; 2=mild; 3=moderate; 4=marked; conditions: 25 mg/kg
# Description: Compound A), total 16 animals were tested with Vehicle Control or 25 mg/kg of (+) isomer for histopathological evaluation. […] Each limb from the middle of the tibia and distally, to include the ankle joint, i.e., the joint between the leg and foot (tibial-tarsus joint), was trimmed mid-longitudinally, and both halves were embedded in paraffin and slides of 6 micron thickness were cut and stained by hematoxylin and eosin. Histopathological changes in the joints were described and scored, using semiquantitative grading of five grades (0-4), taking into consideration the severity of the changes (0=unremarkable, 1=minimal, 2=mild, 3=moderate, 4=marked). […] All typical ranges of changes characteristically seen in this arthritis were noted.
# [5] = system: Human peripheral blood total T cells stimulated with anti-CD3 antibody; experiment: Cytokine and chemokine production by anti-CD3-stimulated T cells (cytometric bead array, Luminex 100); type: cell-based
# Description: (§1) Cytokine and chemokine protein levels were analyzed by cytometric bead array on a Luminex 100. CAIA model: […] Compound A and ETN were administered once daily on days 3-13. […] Both hind paws (left and right) of each animal were examined for signs of arthritogenic responses in blinded fashion. Arthritic reactions were scored and recorded according to a 0-4 scale in ascending order of severity. Hind paw thickness was measured in mm using a Mitutoyo Electronic Digital Caliper.
# [6] = system: mAB/LPS-induced experimental arthritis; experiment: Antibody-induced arthritis in mice (mAb/LPS model, 11 treatment days)
# [7] = system: rheumatoid arthritis synovial fibroblasts stimulated with IL-1, IL-6 and IL-6R; experiment: IL-7 gene expression assay in synovial fibroblasts; type: cell-based, human
# Description: (§2) IL-7 Gene Expression Assay: […] Normal primary human chondrocytes and rheumatoid arthritis synovial fibroblasts purchased from Asterand (Detroit, Mich.) were thawed into a T-75 flask and cultured for 2-3 weeks to reach confluency. The media was 20% premium non-heat inactivated FBS-DMEM/F-12 (Invitrogen 11330-032)+1% pen/strep and 1% L-Glutamine. […] Upon reaching 90% confluency (usually in 1-2 days post-plating), the cells were serum starved for 20 hours by replacing the complete media with 2 ml serum-free media. The cells were treated with the test compounds for 1 hour at 37° C. […] The cells were then washed with cold PBS. Ribonucleic acid (RNA) was isolated by adding 600 μl RLT lysis buffer (Qiagen RNAEasy kit cat#74104), passing the cells through the Qiashredder (Qiagen cat#23800) followed by RNA isolation according to manufacturers' instructions (Qiagen RNAEasy kit). Purified RNA was reverse transcribed into cDNA with thermal cycler for real-time reverse transcriptase polymerase chain reaction (RTPCR) analysis. Interleukin-7 gene expression assays were carried out using the 7500 Real Time PCR system. A GAPDH gene expression assay control was run for each sample and was used as a normalization control.
# Human bone marrow cells = experiment: Osteoclastogenesis induced by dexamethasone and Vitamin D; type: cell-based; conditions: 10 nM dexamethasone and 10 nM Vitamin D; day 7
# Description: Human bone marrow cells were treated with Compound A and with 10 nM dexamethasone and 10 nM Vitamin D to differentiate cells into osteoclasts. Fresh media and Compound A were added every 3 days. At day 7 supernatant was collected and adherent cells were isolated to obtain RNA. Day 7 cells were stained with TRAPS and the number of osteoclasts was counted.
# [8] = system: collagen antibody-induced arthritis; experiment: Mouse model of collagen antibody-induced arthritis (CAIA); type: in vivo, Male BALB/c mice
# Description: as §1
# [9] = system: normal primary human chondrocytes stimulated with IL-1, IL-6 and IL-6R; experiment: IL-7 gene expression assay in chondrocytes; type: cell-based
# Description: as §2
# [10] = system: stimulated primary human normal chondrocytes; experiment: Cell surface protein expression assay (flow cytometry); type: cell-based
# Description: Cell Surface Protein Expression Assay: Normal primary human chondrocyte were thawed into a T-75 flask and grown for 2-3 weeks to reach confluency in 20% premium non-heat inactivated FBS-DMEM/F-12 (Invitrogen 11330-032)+1% pen/strep and 1% L-Glutamine. The cells were plated (1.0×10^6 cells/10 ml of complete media) in a 100×20 mm tissue culture plate. The next day, the media was replaced with 10 ml serum-free media for 20 min to serum starve the cells. Compound A (0.1-10 μM) was added for 1 hour at 37° C. (0.25% final DMSO). In addition, cytokines IL-1β (10 ng/ml), IL-6 (10 ng/ml), and IL-6R (20 ng/ml) were added and the cells continued incubation overnight (18 hours) at 37° C. The cells were harvested by a non-enzymatic cell dissociation solution (Millipore S-004-B) then washed once in cold stain buffer (BD Pharmigen 554656) at 300×g for 5 minutes. The cells were resuspended and aliquoted into three 5 ml round bottom tubes plus two additional aliquots for control. The cells were washed again in cold stain buffer at 300×g for 5 minutes. The cells were stained with PE mouse anti-human: CD54 (ICAM-1) (BD Pharmigen 555511) and Integrin αVβ3 anti (Millipore MAB1976H). The samples were vortexed and incubated for 30 minutes at 4° C. while being protected from light. […] After a final wash, 500 μl of stain buffer was added to each sample and analyzed by flow cytometry.
# [11] = cited from earlier work
# [12] = tibiotarsal joint, grade 0-4, individual animals No. 25-32
compound,measurement,setting,value
"CCOc1cc([C@@H](CS(C)(=O)=O)N2C(=O)c3cccc(NC(C)=O)c3C2=O)ccc1OC [Compound A, (S)-N-(2-(1-(3-ethoxy-4-methoxyphenyl)-2-(methylsulfonyl)ethyl)-1,3-dioxoisoindolin-4-yl)acetamide]",hind paw thickness (suppression of paw swelling),"[1]; 5 mg/kg PO once daily, limited to Day 9, vs. Vehicle Control",A lesser extent (p<0.05 vs. Vehicle Control)
same,hind paw thickness (suppression of paw swelling),"[1]; 25 mg/kg PO once daily, vs. Vehicle Control",highly statistically significant (p<0.01 vs. Vehicle Control) and constant suppression of paw swelling; also recorded: statistically significant reduction of paw swelling
same,sRANKL,[2]; 1 μM and 10 μM,significant decrease
same,OPG,[2],increase
same,RANKL/OPG ratio,[2],significantly inhibit
same,Cmax,"[3]; 20-mg, day-7",419 ng/mL
same,concentration at 7 day,"[3]; 20-mg, day-7",4.9 ng/mL
same,arthritis by histopathological evaluation,[4]; all samples from treated animals,practically no existing arthritis
same,Cartilage disruption,[4]; [12],0
same,Fibrin deposition,[4]; [12],0 (6×) and 1 (2×)
same,Hyaline cartilage destruction (reflected by resorption/erosion in the cartilage),[4]; [12],0
same,Inflammatory infiltration in the synovial membrane,[4]; [12],0
same,Overall assessment: “determined as arthritis”,[4]; [12],0
same,Pannus formation (reflected by proliferation of granulation tissue),[4]; [12],0
same,Subchondral bone destruction (reflected by resorption/erosion by osteoclasts and loss of bone),[4]; [12],0
same,Synovial hyperplasia,[4]; [12],0
same,Synovial villus formation,[4]; [12],0
same,"IC50s, production of all T cell cytokines and chemokines measured (IL-2, IL-4, IL-13, IFN-γ, TNF-α, CXCL10, CCL3, and CCL4)","[5]; anti-CD3 antibody, 2 days, range over all analytes",15 to 360 ng/mL
same,"inhibition of IL-2, IL-4, IL-13, IFN-γ, TNF-α, CXCL10, CCL3, and CCL4",[5]; human T cells,resulted in inhibition
same,mean group arthritogenic scoring value of both hind paws,"[6]; 25 mg/kg, vs. Vehicle Control on Days 9, 11 and 14, respectively","statistically to extremely significant reductions (p<0.05, p<0.01, p<0.001)"
same,treatment-related adverse reactions,"[6]; 5 and 25 mg/kg PO once daily, 11 days, 14-day observation period",No obvious treatment-related adverse reactions
same,mean group percentage change in hind paw thickness vs. arthritis induction initiation (Day 0),"[6]; 5 or 25 mg/kg, vs. Vehicle Control, Days 7, 9, 11 & 14",highly significantly lower (P<0.01)
same,IL-7 gene expression,[7]; 0.1-10 μM,significantly inhibited
same,osteoclast formation (osteoclastogenesis),Human bone marrow cells,inhibit osteoclast formation; also recorded: significantly inhibits osteoclastogenesis
same,arthritis by histopathological analysis,[8]; 25 mg/kg,practically no existing arthritis
same,hind-paw arthritic reaction scores and thickness,[8]; 5 and 25 mg/kg orally once daily on days 3-13,significantly reduced (p<0.01)
same,"synovial hyperplasia, synovial villus formation, fibrin deposition, inflammatory infiltration in the synovial membrane, pannus formation, cartilage disruption, and subchondral bone destruction",[8]; high dose,inhibited
same,IL-7 gene expression,"[9]; 0.1-10 μM, normal primary human chondrocytes",significantly inhibited
same,inhibition of IL-7 gene expression compared with methotrexate and etanercept,[9]; dose ranges encompassing the respective Cmax of MTX and ETC,more effective inhibitor of IL-7 gene expression than methotrexate and etanercept
same,alpha-v-beta-3 (αvβ3) integrin expression,[10],inhibited expression
same,intercellular adhesion molecule 1 (ICAM-1) expression,[10],inhibited expression
"CCOc1cc([C@@H](CS(C)(=O)=O)N2Cc3cccc(NC(=O)C4CC4)c3C2=O)ccc1OC [Compound B, (S)-N-(2-(1-(3-ethoxy-4-methoxyphenyl)-2-(methylsulfonyl)ethyl)-3-oxoisoindolin-4-yl)cyclopropanecarboxamide]",Cmax,[3]; 200-mg day-7,195 ng/mL
same,concentration at 7 day,[3]; 200-mg day-7,40 ng/mL
"CN(Cc1cnc2nc(N)nc(N)c2n1)c1ccc(C(=O)N[C@@H](CCC(=O)O)C(=O)O)cc1 [MTX, methotrexate]",Cmax,[11]; Depending on RA patients,300 to 1040 ng/mL
same,maximum plasma concentration (Cmax),[11],400 ng/mL
same,IL-7 gene expression,[7]; comparators,no significant effects
etanercept,Cmax (ng/ml),[11]; RA patient 6 months 25-mg biweekly,3000 (1700 to 5600) ng/ml
same,Cmax (ng/ml),[11]; RA patients 50-mg weekly,weekly: 2400 ± 1500 ng/ml
same,Cmin,[11]; RA patients,1200 ± 700 ng/mL
same,maximum plasma concentration (Cmax),[11],1600 ng/mL
same,Bioavailability,[11]; in vivo,76%
same,"IC50, IL-13 and IP-10","[5]; anti-CD3 antibody, 2 days",16 to 62 ng/mL
same,"IC50, TNF-α","[5]; anti-CD3 antibody, 2 days",1.5 ng/mL
same,mean group arthritogenic scoring value of both hind paws,"[6]; 6.25 mg/kg, p<0.001 vs. Vehicle Control, study days 7, 9, 11 and 14","highly to extremely statistically lower (p<0.01 & p<0.001, respectively)"
same,IL-7 gene expression,[7]; comparators,no significant effects
